Experimental data as given in the NIST ThermoML archive (doi:10.1021/acs.jced.8b00509).
“And” between values parts separate entries of the source, which are not always exact repeats. Equal entries are not always repeated.

What was measured:
[1] = mn = molality of the nth substance listed, in mol/kg; conditions: 100 kPa, Liquid; for viscosity: Capillary tube (Ostwald / Ubbelohde) method; for speed of sound: Frequency=3 MHz, Single path-length method; for mass density: Vibrating tube method
[2] = 100 kPa, Liquid; for viscosity: Capillary tube (Ostwald / Ubbelohde) method

CN(C)C(=N)NC(=N)N.Cl [N,N-dimethylimidodicarbonimidic diamide hydrochloride] + O
[1]
Conditions	mass density, m1 = 0.005 [kg/m3]	mass density, m1 = 0.01 [kg/m3]	mass density, m1 = 0.05 [kg/m3]	speed of sound, m1 = 0.005 [m/s]	speed of sound, m1 = 0.01 [m/s]	speed of sound, m1 = 0.05 [m/s]	viscosity, m1 = 0.005 [mPa·s]	viscosity, m1 = 0.01 [mPa·s]	viscosity, m1 = 0.05
293.15 K	998.35	998.57	999	1483	1483.3	1483.7	1.006	1.01	1.014 mPa·s
298.15 K	997.2	997.4	997.91	1497	1497.3	1497.7	0.891	0.893	0.895 mPa·s and 0.8947 mPa·s
303.15 K	995.72	995.99	996.53	1509.4	1509.7	1510	0.799	0.801	0.804 mPa·s
308.15 K	994.19	994.37	994.92	1520	1520.3	1520.7	0.722	0.725	0.728 mPa·s and 0.7276 mPa·s
313.15 K	992.38	992.54	993.1	1529.1	1529.4	1529.7	0.655	0.657	0.659 mPa·s

O [water]
[2]
Conditions	viscosity [mPa·s]
293.15 K	1.002
298.15 K	0.89
303.15 K	0.797
308.15 K	0.719
313.15 K	0.652

Conditions	speed of sound [m/s]
[2], 313.15 K, Frequency=3 MHz, Single path-length method	1528.8
